Test results as given in patent US6087355A, “Cephalosporin antibiotics” (Microcide Pharmaceuticals, Inc., priority 1996, dated 2000).
Counter-ions that a name gives are not always drawn.

Legend:
Assay in all cases: In vitro MIC, agar dilution
Type in all cases: cell-based
E. coli ATCC 25992 = conditions: for MIC: Escherichia coli, ATCC25992, read-out: minimum inhibitory concentration (MIC)
How it was run: (§1)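 Agar dilution on Mueller-Hinton plates: spots of roughly 10^4 cfu of log-phase bacteria were placed on agar containing serial two-fold compound dilutions, from a 128 μg/mL top working level to ≤0.25 μg/mL, each in duplicate. After 16-20 hours at 35-36° C, the lowest growth-inhibiting concentration was taken as the MIC.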

E. faecalis ATCC 29212 = conditions: for MIC: Enterococcus faecalis, ATCC29212, read-out: minimum inhibitory concentration (MIC)
How it was run: as §1

E. faecalis VanB(Van^R) = conditions: for MIC: Enterococcus faecalis, read-out: minimum inhibitory concentration (MIC)
How it was run: as §1

E. faecium A491(Amp^R) = conditions: for MIC: Enterococcus faecium, read-out: minimum inhibitory concentration (MIC)
How it was run: as §1

E. faecium ATCC 35667 = conditions: for MIC: Enterococcus faecium, ATCC35667, read-out: minimum inhibitory concentration (MIC)
How it was run: as §1

E. faecium VanA(Van^R) = conditions: for MIC: Enterococcus faecium, read-out: minimum inhibitory concentration (MIC)
How it was run: as §1

P. aeruginosa ATCC 27853 = conditions: for MIC: Pseudomonas aeruginosa, ATCC27853, read-out: minimum inhibitory concentration (MIC)
How it was run: as §1

[1] = tested on: S. aureus 76(Meth^R)(lac^+); conditions: for MIC: Staphylococcus aureus, read-out: minimum inhibitory concentration (MIC)
How it was run: as §1

[2] = tested on: S. aureus ATCC 13709(Meth^S); conditions: for MIC: Staphylococcus aureus, ATCC13709, S. aureus ATCC 13709(Meth^S), read-out: minimum inhibitory concentration (MIC)
How it was run: as §1

S. aureus ATCC 29213 = conditions: for MIC: Staphylococcus aureus, ATCC29213, read-out: minimum inhibitory concentration (MIC)
How it was run: as §1

[3] = tested on: S. aureus ATCC 33593(Meth^R); conditions: for MIC: Staphylococcus aureus, ATCC33593, read-out: minimum inhibitory concentration (MIC)
How it was run: as §1

[4] = tested on: S. aureus PC1(Meth^S)(lac^+); conditions: for MIC: Staphylococcus aureus, read-out: minimum inhibitory concentration (MIC)
How it was run: as §1

[5] = tested on: S. aureus Spain #356(Meth^R); conditions: for MIC: Staphylococcus aureus, read-out: minimum inhibitory concentration (MIC)
How it was run: as §1

[6] = tested on: S. haemolyticus 05(Meth^R); conditions: for MIC: Staphylococcus haemolyticus, read-out: minimum inhibitory concentration (MIC)
How it was run: as §1

[7] = tested on: S. aureus Col(Meth^R)(lac^-); conditions: for MIC: Staphylococcus aureus, read-out: minimum inhibitory concentration (MIC)
How it was run: (§2)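 Two-fold dilutions (128 to ≤0.25 μg/mL, in duplicate) were poured into Mueller-Hinton agar. Log-phase broth cultures were spot-inoculated at about 10^4 cfu per spot and incubated 35-36°C for 16-20 hours; the MIC was the lowest concentration inhibiting growth. Col is a high-level PBP2a producer; Col 8A is its isogenic PBP2a-lacking partner.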

[8] = tested on: S. aureus Col8A(Meth^S)(lac^-); conditions: S. aureus Col8A(Meth^S)(lac^-); for MIC: Staphylococcus aureus, read-out: minimum inhibitory concentration (MIC)
How it was run: as §2

N=CNCCCSCc1cnccc1SC1=C(C(=O)O)N2C(=O)[C@@H](NC(=O)/C(=N\O)c3nc(N)sc3Cl)[C@H]2SC1 [Cmpd 34, (7R)-7-[(Z)-2-(2-amino-5-chlorothiazol-4-yl)-2-(hydroxyimino)acetamido]-3-(3-(3-N-formamidoylaminopropylthiomethyl)pyrid-4-ylthio)-3-cephem-4-carboxylate, trifluoroacetic acid salt]
MIC (E. coli ATCC 25992): 4 µg/mL
MIC (E. faecalis ATCC 29212): ≤ 0.06 µg/mL
MIC (E. faecalis VanB(Van^R)): ≤ 0.06 µg/mL
MIC (E. faecium A491(Amp^R)): 4 µg/mL
MIC (E. faecium ATCC 35667): 0.25 µg/mL
MIC (E. faecium VanA(Van^R)): 0.5 µg/mL
MIC (P. aeruginosa ATCC 27853): > 32 µg/mL
MIC [1]: 1 µg/mL
MIC [2]: ≤ 0.06 µg/mL
MIC (S. aureus ATCC 29213): ≤ 0.06 µg/mL
MIC [3]: 1 µg/mL
MIC [4]: 0.13 µg/mL
MIC [5]: 1 µg/mL
MIC [6]: 2 µg/mL
MIC [7]: 1 µg/mL
MIC [8]: ≤ 0.06 µg/mL

NCC(=O)NCCCSCc1cnccc1SC1=C(C(=O)O)N2C(=O)[C@@H](NC(=O)/C(=N\O)c3nc(N)sc3Cl)[C@H]2SC1 [Cmpd 35, (7R)-7-[(Z)-2-(2-amino-5-chlorothiazol-4-yl)-2-(hydroxyimino)acetamido]-3-[3-(glycyl)aminopropylthiomethylpyrid-4-ylthio]-3-cephem-4-carboxylate, trifluoroacetic acid salt]
MIC (E. coli ATCC 25992): 8 µg/mL
MIC (E. faecalis ATCC 29212): ≤ 0.06 µg/mL
MIC (E. faecalis VanB(Van^R)): 0.25 µg/mL
MIC (E. faecium A491(Amp^R)): 4 µg/mL
MIC (E. faecium ATCC 35667): 0.25 µg/mL
MIC (E. faecium VanA(Van^R)): 0.5 µg/mL
MIC (P. aeruginosa ATCC 27853): > 32 µg/mL
MIC [1]: 2 µg/mL
MIC [2]: 0.25 µg/mL
MIC (S. aureus ATCC 29213): 0.25 µg/mL
MIC [3]: 2 µg/mL
MIC [4]: 0.5 µg/mL
MIC [5]: 2 µg/mL
MIC [6]: 4 µg/mL
MIC [7]: 2 µg/mL
MIC [8]: 0.25 µg/mL

NCCSCc1nnsc1SC1=C(C(=O)O)N2C(=O)[C@@H](NC(=O)Cc3ccccc3)[C@H]2SC1.O=C(O)C(F)(F)F [Cmpd 37, (7R)-7-[(phenylacetyl)amino]-3-(4-(2-aminoethylthiomethyl)-1,2,3-thiadiazol-5-ylthio)-3-cephem-4-carboxylate, trifluoroacetic acid salt]
MIC (E. coli ATCC 25992): > 32 µg/mL
MIC (E. faecalis ATCC 29212): 0.25 µg/mL
MIC (E. faecalis VanB(Van^R)): 0.5 µg/mL
MIC (E. faecium A491(Amp^R)): > 32 µg/mL
MIC (E. faecium ATCC 35667): 0.5 µg/mL
MIC (E. faecium VanA(Van^R)): 2 µg/mL
MIC (P. aeruginosa ATCC 27853): > 32 µg/mL
MIC [1]: 4 µg/mL
MIC [2]: ≤ 0.06 µg/mL
MIC (S. aureus ATCC 29213): 0.5 µg/mL
MIC [3]: 16 µg/mL
MIC [4]: 1 µg/mL
MIC [5]: 8 µg/mL
MIC [6]: 8 µg/mL
MIC [7]: 0.5 µg/mL
MIC [8]: ≤ 0.06 µg/mL

NCCSCc1nnsc1SC1=C(C(=O)O)N2C(=O)[C@@H](NC(=O)/C(=N\O)c3csc(N)n3)[C@H]2SC1 [Cmpd 38, (7R)-7-[(Z)-2-(aminothiazol-4-yl)-2-(hydroxyimino)acetamido]-3-(4-(2-aminoethylthiomethyl)-1,2,3-thiadiazol-5-ylthio)-3-cephem-4-carboxylate, trifluoroacetic acid salt]
MIC (E. coli ATCC 25992): 2 µg/mL
MIC (E. faecalis ATCC 29212): 0.13 µg/mL
MIC (E. faecalis VanB(Van^R)): 0.13 µg/mL
MIC (E. faecium A491(Amp^R)): > 32 µg/mL
MIC (E. faecium ATCC 35667): 1 µg/mL
MIC (E. faecium VanA(Van^R)): 2 µg/mL
MIC (P. aeruginosa ATCC 27853): > 32 µg/mL
MIC [1]: 1 µg/mL
MIC [2]: 0.13 µg/mL
MIC (S. aureus ATCC 29213): 0.13 µg/mL
MIC [3]: 1 µg/mL
MIC [4]: 0.25 µg/mL
MIC [5]: 1 µg/mL
MIC [6]: 2 µg/mL
MIC [7]: 1 µg/mL
MIC [8]: 0.13 µg/mL

NCCOCc1cnccc1SC1=C(C(=O)O)N2C(=O)[C@@H](NC(=O)/C(=N\O)c3nc(N)sc3Cl)[C@H]2SC1 [Cmpd 40, (7R)-7-[(Z)-2-(2-amino-5-chlorothiazol-4-yl)-2-(hydroxyimino)acetamido]-3-(3-(2-aminoethoxymethyl)pyrid-4-ylthio)-3-cephem-4-carboxylate, trifluoroacetic acid salt]
MIC (E. coli ATCC 25992): 8 µg/mL
MIC (E. faecalis ATCC 29212): 0.13 µg/mL
MIC (E. faecalis VanB(Van^R)): 0.25 µg/mL
MIC (E. faecium A491(Amp^R)): 16 µg/mL
MIC (E. faecium ATCC 35667): 1 µg/mL
MIC (E. faecium VanA(Van^R)): 2 µg/mL
MIC (P. aeruginosa ATCC 27853): > 32 µg/mL
MIC [1]: 2 µg/mL
MIC [2]: 0.25 µg/mL
MIC (S. aureus ATCC 29213): 0.25 µg/mL
MIC [3]: 2 µg/mL
MIC [4]: 0.13 µg/mL
MIC [5]: 2 µg/mL
MIC [6]: 4 µg/mL
MIC [7]: 2 µg/mL
MIC [8]: 0.5 µg/mL

Nc1nc(/C(=N/O)C(=O)N[C@@H]2C(=O)N3C(C(=O)O)=C(Sc4ccncc4CSC4CCNC4)CS[C@H]23)c(Cl)s1 (stereo partly drawn) [Cmpd 42, (7R)-7-[(Z)-2-(2-amino-5-chlorothiazol-4-yl)-2-(hydroxyimino)acetamido]-3-(3-(pyrrolidin-3-ylthiomethyl)pyrid-4-ylthio)-3-cephem-4-carboxylate, trifluoroacetic acid salt]
MIC (E. coli ATCC 25992): 2 µg/mL
MIC (E. faecalis ATCC 29212): ≤ 0.06 µg/mL
MIC (E. faecalis VanB(Van^R)): ≤ 0.06 µg/mL
MIC (E. faecium A491(Amp^R)): 4 µg/mL
MIC (E. faecium ATCC 35667): 0.25 µg/mL
MIC (E. faecium VanA(Van^R)): 0.5 µg/mL
MIC (P. aeruginosa ATCC 27853): 32 µg/mL
MIC [1]: 1 µg/mL
MIC [2]: 0.13 µg/mL
MIC (S. aureus ATCC 29213): 0.13 µg/mL
MIC [3]: 1 µg/mL
MIC [4]: 0.13 µg/mL
MIC [5]: 1 µg/mL
MIC [6]: 2 µg/mL
MIC [7]: 0.5 µg/mL
MIC [8]: 0.25 µg/mL

CNCC(=O)NCCSCc1cnccc1SC1=C(C(=O)O)N2C(=O)[C@@H](NC(=O)/C(=N\O)c3nc(N)sc3Cl)[C@H]2SC1 [Cmpd 43, (7R)-7-[(Z)-2-(2-amino-5-chlorothiazol-4-yl)-2-(hydroxyimino)acetamido]-3-[3-(N-methylglycyl)aminoethylthiomethylpyrid-4-ylthio]-3-cephem-4-carboxylate, trifluoroacetic acid salt]
MIC (E. coli ATCC 25992): 8 µg/mL
MIC (E. faecalis ATCC 29212): 0.13 µg/mL
MIC (E. faecalis VanB(Van^R)): 0.25 µg/mL
MIC (E. faecium A491(Amp^R)): 8 µg/mL
MIC (E. faecium ATCC 35667): 1 µg/mL
MIC (E. faecium VanA(Van^R)): 1 µg/mL
MIC (P. aeruginosa ATCC 27853): > 32 µg/mL
MIC [1]: 2 µg/mL
MIC [2]: 0.5 µg/mL
MIC (S. aureus ATCC 29213): 0.5 µg/mL
MIC [3]: 2 µg/mL
MIC [4]: 1 µg/mL
MIC [5]: 2 µg/mL
MIC [6]: 4 µg/mL
MIC [7]: 2 µg/mL
MIC [8]: 0.5 µg/mL

NC/C=C\Cc1cnccc1SC1=C(C(=O)O)N2C(=O)[C@@H](NC(=O)/C(=N\O)c3nc(N)sc3Cl)[C@H]2SC1.O=C(O)C(F)(F)F [Cmpd 50, (7R)-7-[(Z)-2-(2-amino-5-chlorothiazol-4-yl)-2-(hydroxyimino)acetamido]-3-(3-(4-amino-2-Z-buten-1-yl)pyrid-4-ylthio)-3-cephem-4-carboxylate, trifluoroacetic acid salt]
minimum inhibitory concentration (MIC) (E. coli ATCC 25992): 4 µg/mL
minimum inhibitory concentration (MIC) (E. faecalis ATCC 29212): 0.13 µg/mL
minimum inhibitory concentration (MIC) (E. faecalis VanB(Van^R)): 0.5 µg/mL
minimum inhibitory concentration (MIC) (E. faecium A491(Amp^R)): 16 µg/mL
minimum inhibitory concentration (MIC) (E. faecium ATCC 35667): 1 µg/mL
minimum inhibitory concentration (MIC) (E. faecium VanA(Van^R)): 2 µg/mL
minimum inhibitory concentration (MIC) (P. aeruginosa ATCC 27853): > 32 µg/mL
minimum inhibitory concentration (MIC) [1]: 2 µg/mL
minimum inhibitory concentration (MIC) ([2]; S. aureus ATCC 13709(Meth^S)): 0.13 µg/mL
minimum inhibitory concentration (MIC) (S. aureus ATCC 29213): 0.13 µg/mL
minimum inhibitory concentration (MIC) [3]: 2 µg/mL
minimum inhibitory concentration (MIC) [4]: 0.25 µg/mL
minimum inhibitory concentration (MIC) [5]: 2 µg/mL
minimum inhibitory concentration (MIC) [6]: 4 µg/mL
minimum inhibitory concentration (MIC) [7]: 2 µg/mL
minimum inhibitory concentration (MIC) [8]: 0.25 µg/mL

Nc1nc(/C(=N/O)C(=O)N[C@@H]2C(=O)N3C(C(=O)O)=C(Sc4ccncc4CSC4CCNCC4)CS[C@H]23)c(Cl)s1 [Cmpd 52, (7R)-7-[(Z)-2-(2-amino-5-chlorothiazol-4-yl)-2-(hydroxyimino)acetamido]-3-(3-(piperidine-4-ylthiomethyl)pyrid-4-ylthio)-3-cephem-4-carboxylate, trifluoroacetic acid salt]
MIC (E. coli ATCC 25992): 2 µg/mL
MIC (E. faecalis ATCC 29212): ≤ 0.06 µg/mL
MIC (E. faecalis VanB(Van^R)): 0.13 µg/mL
MIC (E. faecium A491(Amp^R)): 4 µg/mL
MIC (E. faecium ATCC 35667): ≤ 0.06 µg/mL
MIC (E. faecium VanA(Van^R)): 1 µg/mL
MIC (P. aeruginosa ATCC 27853): > 32 µg/mL
MIC [1]: 2 µg/mL
MIC [2]: 0.5 µg/mL
MIC (S. aureus ATCC 29213): 0.5 µg/mL
MIC [3]: 2 µg/mL
MIC [4]: 0.5 µg/mL
MIC [5]: 2 µg/mL
MIC [6]: 2 µg/mL
MIC [7]: 2 µg/mL
MIC [8]: 0.25 µg/mL
